Reference: PubChem BioAssay AID200 (DTP/NCI, 2004)
Several values for one entry are separate records, joined by “and”; a condition that tells them apart may be missing. Equal entries are not always repeated. Toxic doses and inconclusive results are not listed. Where a SMILES comes first, the peptide text is derived from it.

System: B6C3F1 mice, B16 melanoma ip, median survival T/C
Experiment: NCI In Vivo Anticancer Drug Screen. Data for tumor model B16 Melanoma (intraperitoneal) in B6C3F1 mice
Conditions: endpoint: median survival time, schedule: Q01DX009 (ip), higher = longer survival
Procedure, shortened: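 Readout: survival or tumor size in treated mice relative to vehicle controls (T/C). Model uses transplantable tumors grown in mice.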

[1] = dose: 6.25 mg/kg/injection, vehicle: saline with Tween-80
[2] = dose: 12.5 mg/kg/injection, vehicle: saline with Tween-80
[3] = dose: 25.0 mg/kg/injection, vehicle: saline with Tween-80
[4] = dose: 50.0 mg/kg/injection, vehicle: saline with Tween-80
[5] = dose: 12.5 mg/kg/injection, vehicle: saline
[6] = dose: 25.0 mg/kg/injection, vehicle: saline
[7] = dose: 50.0 mg/kg/injection, vehicle: saline
[8] = dose: 100.0 mg/kg/injection, vehicle: saline
[9] = dose: 100.0 mg/kg/injection, vehicle: Klucel (hydroxypropylcellulose) (HPC)
[10] = dose: 200.0 mg/kg/injection, vehicle: Klucel (hydroxypropylcellulose) (HPC)
[11] = dose: 400.0 mg/kg/injection, vehicle: Klucel (hydroxypropylcellulose) (HPC)
[12] = dose: 100.0 mg/kg/injection, vehicle: saline with Tween-80
[13] = dose: 200.0 mg/kg/injection, vehicle: saline with Tween-80
[14] = dose: 12.5 mg/kg/injection, vehicle: Klucel (hydroxypropylcellulose) (HPC)
[15] = dose: 25.0 mg/kg/injection, vehicle: Klucel (hydroxypropylcellulose) (HPC)
[16] = dose: 50.0 mg/kg/injection, vehicle: Klucel (hydroxypropylcellulose) (HPC)
[17] = dose: 400.0 mg/kg/injection, vehicle: saline with Tween-80

Nc1nc(=S)c2ncn(C3OC(COC(=O)c4ccccc4)C(OC(=O)c4ccccc4)C3OC(=O)c3ccccc3)c2[nH]1 (centres undefined)
T/C [1]: 112 % of control | T/C [2]: 117 % of control | T/C [3]: 111 % of control | T/C [4]: 97 % of control

NCCc1cc(O)c(O)c(O)c1
T/C [5]: 106 % of control | T/C [6]: 105 % of control | T/C [7]: 101 % of control | T/C [8]: 98 % of control | T/C (dose: 200.0 mg/kg/injection, vehicle: saline): 106 % of control | T/C (dose: 400.0 mg/kg/injection, vehicle: saline): 96 % of control

CC(O)C(NC(=O)CNC(=O)CNC(=O)OCc1ccccc1)C(=O)O (centres undefined) (HELM PEPTIDE1{[O=C(OCc1ccccc1)[*:2]].G.G.[CC(O)C(N[*:1])C(=O)O]}$$$$V2.0)
T/C [9]: 103 % of control | T/C [10]: 106 % of control | T/C [11]: 113 % of control

CC(C)(C)C(=O)CC(=O)C(F)(F)C(F)(F)C(F)(F)F.CC(C)(C)C(=O)CC(=O)C(F)(F)C(F)(F)C(F)(F)F.CC(C)(C)C(=O)CC(=O)C(F)(F)C(F)(F)C(F)(F)F.[Er]
T/C (dose: 12.5 mg/kg/injection, vehicle: saline + alcohol): 105 % of control | T/C (dose: 25.0 mg/kg/injection, vehicle: saline + alcohol): 118 % of control | T/C (dose: 50.0 mg/kg/injection, vehicle: saline + alcohol): 109 % of control | T/C (dose: 100.0 mg/kg/injection, vehicle: saline + alcohol): 111 % of control

O=C(O)CC1C(=O)OC2C3COC(=O)c4cc(O)c(O)c(O)c4-c4c(cc(O)c(O)c4O)C(=O)OC2C(OC(=O)c2cc(O)c(O)c4c2C1C(O)C(=O)O4)C(OC(=O)c1cc(O)c(O)c(O)c1)O3 (centres undefined)
T/C (dose: 6.25 mg/kg/injection, vehicle: saline): 94 % of control | T/C [5]: 99 % of control | T/C [6]: 100 % of control | T/C [7]: 88 % of control

O=C(CN1CCOCC1)Nc1nc(-c2ccc(Cl)cc2)cs1
T/C [2]: 105 % of control | T/C [3]: 94 % of control | T/C [4]: 96 % of control | T/C [12]: 103 % of control | T/C [13]: 98 % of control

NS(=O)(=O)c1cc2c(cc1Cl)NC=NS2(=O)=O
T/C (dose: 37.5 mg/kg/injection, vehicle: Klucel (hydroxypropylcellulose) (HPC)): 94 % of control | T/C (dose: 75.0 mg/kg/injection, vehicle: Klucel (hydroxypropylcellulose) (HPC)): 90 % of control | T/C (dose: 150.0 mg/kg/injection, vehicle: Klucel (hydroxypropylcellulose) (HPC)): 95 % of control | T/C (dose: 300.0 mg/kg/injection, vehicle: Klucel (hydroxypropylcellulose) (HPC)): 88 % of control

COc1ccc2[nH]c3ccc4cc[n+](CCN5CCC(C6CCN(CC[n+]7ccc8ccc9[nH]c%10ccc(OC)cc%10c9c8c7)CC6)CC5)cc4c3c2c1
T/C (dose: 6.0 mg/kg/injection, vehicle: water): 155 % of control | T/C (dose: 12.0 mg/kg/injection, vehicle: water): 158 % of control | T/C [14]: 155 % of control | T/C [15]: 203 % of control | T/C (dose: 25.0 mg/kg/injection, vehicle: water): 177 % of control | T/C [16]: 192 % of control | T/C (dose: 50.0 mg/kg/injection, vehicle: water): 168 % of control | T/C [9]: 167 % of control | T/C (dose: 100.0 mg/kg/injection, vehicle: water): 197 % of control

Oc1ccc(/C=N/N=C/c2ccc(O)c(O)c2)cc1O
T/C [3]: 100 % of control | T/C [4]: 102 % of control | T/C [12]: 99 % of control | T/C [13]: 97 % of control

O=C(O)COc1ccc(-c2ccc(Br)cc2)cc1
T/C [3]: 95 % of control | T/C [4]: 98 % of control | T/C [12]: 87 % of control | T/C [13]: 96 % of control | T/C [17]: 94 % of control

C[C@H]1CCC/C=C/[C@@H]2C[C@H](O)C[C@H]2[C@H](O)/C=C/C(=O)O1
T/C [14]: 89 % of control | T/C [15]: 91 % of control | T/C [16]: 91 % of control

CCCCC(NC(=O)OC(C)(C)C)C(=O)O (centres undefined)
T/C [9]: 97 % of control | T/C [10]: 111 % of control | T/C [11]: 90 % of control

Nc1ncnc2c1c1c(=O)[nH]c(=O)[nH]c1n2C1OC(CO)C(O)C1O (centres undefined)
T/C (dose: 25.0 mg/kg/injection, vehicle: distilled water + Tween-80): 123 % of control | T/C (dose: 200.0 mg/kg/injection, vehicle: distilled water + Tween-80): 172 % of control

C=C1C(C)C2C(Cc3ccccc3)NC(=O)C23C(OC(C)=O)/C=C/C(C)(O)CC(C)C/C=C/C3C1O (centres undefined)
T/C (dose: 0.37 mg/kg/injection, vehicle: Klucel (hydroxypropylcellulose) (HPC)): 112 % of control and 99 % of control | T/C (dose: 0.75 mg/kg/injection, vehicle: Klucel (hydroxypropylcellulose) (HPC)): 110 % of control and 100 % of control and 101 % of control | T/C (dose: 1.5 mg/kg/injection, vehicle: Klucel (hydroxypropylcellulose) (HPC)): 115 % of control and 98 % of control and 103 % of control | T/C (dose: 1.56 mg/kg/injection, vehicle: saline with Tween-80): 124 % of control | T/C (dose: 3.0 mg/kg/injection, vehicle: Klucel (hydroxypropylcellulose) (HPC)): 112 % of control and 115 % of control and 105 % of control | T/C (dose: 3.13 mg/kg/injection, vehicle: saline with Tween-80): 111 % of control | T/C (dose: 6.0 mg/kg/injection, vehicle: Klucel (hydroxypropylcellulose) (HPC)): 103 % of control | T/C [1]: 113 % of control | T/C (dose: 12.0 mg/kg/injection, vehicle: Klucel (hydroxypropylcellulose) (HPC)): 103 % of control

O=CNCC(=O)O
T/C [7]: 91 % of control | T/C [8]: 89 % of control

CCN1CSC(=S)N(CC)C1
T/C [3]: 94 % of control | T/C [4]: 94 % of control | T/C [12]: 91 % of control

Cc1cc(O)c(O)c(Oc2cc(C)cc(O)c2O)c1
T/C (dose: 75.0 micrograms/kg/injection, vehicle: saline): 94 % of control | T/C (dose: 150.0 micrograms/kg/injection, vehicle: saline): 104 % of control | T/C (dose: 300.0 micrograms/kg/injection, vehicle: saline): 105 % of control

ClCCCN1CCN(CCCCl)CC1
T/C (dose: 6.25 mg/kg/injection, vehicle: distilled water + alcohol): 109 % of control and 98 % of control | T/C (dose: 12.5 mg/kg/injection, vehicle: distilled water + alcohol): 102 % of control and 104 % of control | T/C (dose: 25.0 mg/kg/injection, vehicle: distilled water + alcohol): 108 % of control and 105 % of control | T/C (dose: 50.0 mg/kg/injection, vehicle: distilled water + alcohol): 118 % of control and 107 % of control | T/C (dose: 100.0 mg/kg/injection, vehicle: distilled water + alcohol): 115 % of control and 118 % of control

CNC(=O)Oc1ccc[nH]c1=O
T/C (dose: 16.0 mg/kg/injection, vehicle: saline with Tween-80): 101 % of control | T/C (dose: 32.0 mg/kg/injection, vehicle: saline with Tween-80): 100 % of control | T/C (dose: 64.0 mg/kg/injection, vehicle: saline with Tween-80): 101 % of control | T/C (dose: 128.0 mg/kg/injection, vehicle: saline with Tween-80): 100 % of control | T/C (dose: 256.0 mg/kg/injection, vehicle: saline with Tween-80): 95 % of control

CC(Oc1ccccc1-c1ccccc1)C(=O)N(C)C (centres undefined)
T/C [2]: 95 % of control | T/C [3]: 100 % of control | T/C [4]: 95 % of control | T/C [12]: 98 % of control | T/C [13]: 106 % of control | T/C [17]: 100 % of control
